Laboratory results reported in PubChem BioAssay (NCI).
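GI50 marks 50% less growth. TGI: concentration producing complete growth inhibition.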

Columns and labels:
Assay in all cases: NCI anticancer screen, dose series, 384-well format
786-0 renal = tested on: 786-0 renal
A498 renal = tested on: A498 renal
A549 NSCLC = tested on: A549 NSCLC
ACHN renal = tested on: ACHN renal
BT-549 breast = tested on: BT-549 breast
CAKI-1 renal = tested on: CAKI-1 renal
CCRF-CEM leukemia = tested on: CCRF-CEM leukemia
COLO 205 colon = tested on: COLO 205 colon
DU-145 prostate = tested on: DU-145 prostate
EKVX NSCLC = tested on: EKVX NSCLC
HCC-2998 colon = tested on: HCC-2998 colon
HCT-116 colon = tested on: HCT-116 colon
HCT-15 colon = tested on: HCT-15 colon
HL-60(TB) leukemia = tested on: HL-60(TB) leukemia
HOP-62 NSCLC = tested on: HOP-62 NSCLC
HOP-92 NSCLC = tested on: HOP-92 NSCLC
HS 578T breast = tested on: HS 578T breast
HT29 colon = tested on: HT29 colon
IGROV1 ovarian = tested on: IGROV1 ovarian
K-562 leukemia = tested on: K-562 leukemia
KM12 colon = tested on: KM12 colon
LOX IMVI melanoma = tested on: LOX IMVI melanoma
M14 melanoma = tested on: M14 melanoma
MALME-3M melanoma = tested on: MALME-3M melanoma
MCF7 breast = tested on: MCF7 breast
MDA-MB-231 breast = tested on: MDA-MB-231 breast
MDA-MB-435 melanoma = tested on: MDA-MB-435 melanoma
MDA-MB-468 breast = tested on: MDA-MB-468 breast
MOLT-4 leukemia = tested on: MOLT-4 leukemia
NCI-H226 lung = tested on: NCI-H226 lung
NCI-H23 lung = tested on: NCI-H23 lung
NCI-H322M lung = tested on: NCI-H322M lung
NCI-H460 NSCLC = tested on: NCI-H460 NSCLC
NCI-H522 lung = tested on: NCI-H522 lung
NCI/ADR-RES ovarian = tested on: NCI/ADR-RES ovarian
OVCAR-3 ovarian = tested on: OVCAR-3 ovarian
OVCAR-4 ovarian = tested on: OVCAR-4 ovarian
OVCAR-5 ovarian = tested on: OVCAR-5 ovarian
PC-3 prostate = tested on: PC-3 prostate
RPMI-8226 leukemia = tested on: RPMI-8226 leukemia
RXF 393 renal = tested on: RXF 393 renal
SF-268 CNS = tested on: SF-268 CNS
SF-295 CNS = tested on: SF-295 CNS
SF-539 CNS = tested on: SF-539 CNS
SK-MEL-2 melanoma = tested on: SK-MEL-2 melanoma
SK-MEL-28 melanoma = tested on: SK-MEL-28 melanoma
SK-MEL-5 melanoma = tested on: SK-MEL-5 melanoma
SK-OV-3 ovarian = tested on: SK-OV-3 ovarian
SN12C renal = tested on: SN12C renal
SNB-19 CNS = tested on: SNB-19 CNS
SNB-75 CNS = tested on: SNB-75 CNS
SR leukemia = tested on: SR leukemia
SW-620 colon = tested on: SW-620 colon
T-47D breast = tested on: T-47D breast
TK-10 renal = tested on: TK-10 renal
U251 glioblastoma = tested on: U251 glioblastoma
UACC-257 melanoma = tested on: UACC-257 melanoma
UACC-62 melanoma = tested on: UACC-62 melanoma
UO-31 renal = tested on: UO-31 renal

Work on NCCCCN(Cc1nc2ccccc2[nH]1)[C@H]1CCCc2cccnc21 yielded a GI50 ([…]-0 renal) of 8.34 µM, a TGI (786-0 renal) of 31.3 µM and a GI50 (A498 renal) of 14.7 µM. For the same compound, the TGI (A498 renal) was 44.2 µM, the GI50 (A549 NSCLC) was 9.68 µM and the TGI (A549 NSCLC) was 28.4 µM. For the same compound, the GI50 (ACHN renal) was 17.3 µM, the TGI (ACHN renal) was 35.9 µM and the GI50 (BT-549 breast) was 7.45 µM. It also gave a TGI (BT-549 breast) of 28.5 µM, a GI50 (CAKI-1 renal) of 7.89 µM and a TGI (CAKI-1 renal) of 22.5 µM. For the same compound, the GI50 (CCRF-CEM leukemia) was 5.43 µM, the TGI (CCRF-CEM leukemia) was 18.5 µM and the GI50 (COLO 205 colon) was 2350 nM. The TGI (COLO 205 colon) was 5.73 µM, the GI50 (DU-145 prostate) was 7.23 µM and the TGI (DU-145 prostate) was over 100 µM. It also gave a GI50 (EKVX NSCLC) of 8.83 µM, a TGI (EKVX NSCLC) of 24.5 µM and a GI50 (HCC-2998 colon) of 4.63 µM. For the same compound, the TGI (HCC-2998 colon) was 18.4 µM, the GI50 (HCT-116 colon) was 5.3 µM and the TGI (HCT-116 colon) was 20.5 µM. For the same compound, the GI50 (HCT-15 colon) was 13.9 µM, the TGI (HCT-15 colon) was 32.2 µM and the GI50 (HL-60(TB) leukemia) was 1350 nM. It also gave a TGI (HL-60(TB) leukemia) of 2820 nM, a GI50 (HOP-62 NSCLC) of 3.94 µM and a TGI (HOP-62 NSCLC) of 19 µM. The GI50 (HOP-92 NSCLC) was 2700 nM, the TGI (HOP-92 NSCLC) was 13.4 µM and the GI50 (HS 578T breast) was 4.57 µM. For the same compound, the TGI (HS 578T breast) was 18.4 µM, the GI50 (HT29 colon) was 3.6 µM and the TGI (HT29 colon) was 13.4 µM. For the same compound, the GI50 (IGROV1 ovarian) was 5.7 µM, the TGI (IGROV1 ovarian) was 19.1 µM and the GI50 (K-562 leukemia) was 10.2 µM. The TGI (K-562 leukemia) was 22.5 µM, the GI50 (KM12 colon) was 6.23 µM and the TGI (KM12 colon) was 33.8 µM. It also gave a GI50 (LOX IMVI melanoma) of 9.28 µM, a TGI (LOX IMVI melanoma) of 23 µM and a GI50 (M14 melanoma) of 5.75 µM. The TGI (M14 melanoma) was 18.4 µM, the GI50 (MALME-3M melanoma) was 11.9 µM and the TGI (MALME-3M melanoma) was 24.3 µM. It also gave a GI50 (MCF7 breast) of 7.6 µM, a TGI (MCF7 breast) of 25.9 µM and a GI50 (MDA-MB-231 breast) of 4.42 µM. The TGI (MDA-MB-231 breast) was 23.6 µM, the GI50 (MDA-MB-435 melanoma) was 7.39 µM and the TGI (MDA-MB-435 melanoma) was 23.3 µM. It also gave a GI50 (MDA-MB-468 breast) of 2810 nM, a TGI (MDA-MB-468 breast) of 8.14 µM and a GI50 (MOLT-4 leukemia) of 1310 nM. The TGI (MOLT-4 leukemia) was 2840 nM, the GI50 (NCI-H226 lung) was 10.4 µM and the TGI (NCI-H226 lung) was 23.5 µM. For the same compound, the GI50 (NCI-H23 lung) was 4.94 µM, the TGI (NCI-H23 lung) was 22.9 µM and the GI50 (NCI-H322M lung) was 4.64 µM. It also gave a TGI (NCI-H322M lung) of 24.6 µM, a GI50 (NCI-H460 NSCLC) of 4.47 µM and a TGI (NCI-H460 NSCLC) of 18.1 µM. The GI50 (NCI-H522 lung) was 2680 nM, the TGI (NCI-H522 lung) was 18.6 µM and the GI50 (NCI/ADR-RES ovarian) was 16 µM. For the same compound, the TGI (NCI/ADR-RES ovarian) was 31.6 µM, the GI50 (OVCAR-3 ovarian) was 2200 nM and the TGI (OVCAR-3 ovarian) was 15.9 µM. The GI50 (OVCAR-4 ovarian) was 4.66 µM, the TGI (OVCAR-4 ovarian) was 26.2 µM and the GI50 (OVCAR-5 ovarian) was 5.13 µM. For the same compound, the TGI (OVCAR-5 ovarian) was 28.2 µM, the GI50 (PC-3 prostate) was 6.25 µM and the TGI (PC-3 prostate) was 40.8 µM. For the same compound, the GI50 (RPMI-8226 leukemia) was 5.63 µM, the TGI (RPMI-8226 leukemia) was 19.1 µM and the GI50 (RXF 393 renal) was 4.56 µM. For the same compound, the TGI (RXF 393 renal) was 21.4 µM, the GI50 (SF-268 CNS) was 5.51 µM and the TGI (SF-268 CNS) was 35.1 µM. For the same compound, the GI50 (SF-295 CNS) was 8.81 µM, the TGI (SF-295 CNS) was 22.1 µM and the GI50 (SF-539 CNS) was 9.07 µM. For the same compound, the TGI (SF-539 CNS) was 21.3 µM, the GI50 (SK-MEL-2 melanoma) was 20.3 µM and the TGI (SK-MEL-2 melanoma) was 34.7 µM. The GI50 (SK-MEL-28 melanoma) was 11.4 µM, the TGI (SK-MEL-28 melanoma) was 24.3 µM and the GI50 (SK-MEL-5 melanoma) was 2620 nM. For the same compound, the TGI (SK-MEL-5 melanoma) was 15.9 µM, the GI50 (SK-OV-3 ovarian) was 9.63 µM and the TGI (SK-OV-3 ovarian) was 40.4 µM. It also gave a GI50 (SN12C renal) of 9.33 µM, a TGI (SN12C renal) of 52.2 µM and a GI50 (SNB-19 CNS) of 18 µM. The TGI (SNB-19 CNS) was over 100 µM, the GI50 (SNB-75 CNS) was 4.2 µM and the TGI (SNB-75 CNS) was 18.1 µM. The GI50 (SR leukemia) was 1300 nM, the TGI (SR leukemia) was 2590 nM and the GI50 (SW-620 colon) was 10.4 µM. The TGI (SW-620 colon) was 34.1 µM, the GI50 (T-47D breast) was 12.7 µM and the TGI (T-47D breast) was 32.1 µM. It also gave a GI50 (TK-10 renal) of 10.6 µM, a TGI (TK-10 renal) of 23.6 µM and a GI50 (U251 glioblastoma) of 6.5 µM. It also gave a TGI (U251 glioblastoma) of 25.9 µM, a GI50 (UACC-257 melanoma) of 7.89 µM and a TGI (UACC-257 melanoma) of 20.5 µM. For the same compound, the GI50 (UACC-62 melanoma) was 10.1 µM, the TGI (UACC-62 melanoma) was 22.3 µM and the GI50 (UO-31 renal) was 13.4 µM. The TGI (UO-31 renal) was 29.1 µM.
